The text below walks through data of patent US10961228B2, “JAK1 selective inhibitors” (AstraZeneca AB, priority 2017, dated 2021).

Series [1] relates to OVA-challenged Brown Norway rat. Nature of the series: OVA lung inflammation model, eosinophils in broncho alveolar lavage. Type of series: in vivo. Particulars: for reduction of eosinophils in BAL: inhaled DPI, vs OVA/OVA group 3. Here is the method:
Brown Norway rats were sensitised and challenged with chicken ovary albumin (OVA) (Clinical and Experimental Allergy, 37 (2007) 973-988). After inhaling an amount of micronized compound within the scope of the present disclosure, the reduction in airway inflammation in the lung of OVA-challenged Brown Norway rat was measured as % reduction of eosinophils in broncho alveolar lavage (BAL) compared to challenged, but untreated rat using the following protocol. As the model control, an i.t. over dose (2*300 μg/kg) of the model reference compound, Budesonide, was used. 74 animals were divided into 8 experimental groups and treated as follows: • Group 1 (Saline/Saline/Air), n=6—Sham (saline) sensitisation at Day0 (S1) and Day7 (S2) and sham (saline) challenged at Day14 (P1). Treatment room air • Group 2 (OVA/Saline/Lactose), n=8—Sensitised at Day0 (S1) and Day7 (S2) with Al(OH)3/OVA mixture followed by the i.t. sham (saline) challenge at Day14 (P1). Treatment DPI Lactose. • Group 3 (OVA/OVA/Lactose), n=12—Sensitised at Day0 (S1) and Day7 (S2) with Al(OH)3/OVA mixture followed by the i.t. OVA challenge at Day14 (P1). […] Treatment i.t. with Budesonide (model reference compound) at 2×300 μg/kg Day14. Twice daily. Prior to start of first sensitisation (S1), the body weight (BW) was recorded and all rats were tail marked with the identification number. The BW was additionally recorded prior to S2 and prior to the termination point (D15). All of the animals' BAL was determined. At the time of termination, the performer(s) (investigator) were blinded to the status of the individual rats, The rats where subcutaneously (s.c.) injected with a mixture of OVA/Al(OH)3 (100 μg OVA:100 mg Alum in 1 ml saline/rat), and intraperitoneally (i.p.) injected with 0.5 ml/rat of B. Pertussis toxin (0.1 μg/ml) at Day 0 and Day 7. Sham sensitisation was performed by s.c. and i.p. injections of isotonic saline with the same volume and strategy. Each exposure system consisted of a flow-past exposure inhalation chamber, rat restraining tubes and a Modified Wright Dust Feed mechanism. Measurements of the aerosol concentration in the inhalation chamber for each dose level was performed by filter sampling at one of the inhalation ports (AP40, 47 mm, Millipore). […] Rats from Group 2 and 3 were exposed to lactose in the restraining tube (Battelle chambers). Target inhaled doses (μg/kg) were calculated assuming exposure duration of 2-10 minutes and a body weight of 250 g using the following formula: The rats were weighed the day prior to OVA challenge. At challenge the rats were anaesthetised with Isoflurane mixture (air and 4% isoflurane) put in supine position with 30-40° angle and instilled with vehicle or compound. This intra-tracheal instillation was performed by using a modified metal cannula with bolus-bulb on the end. Rats were placed in. cages in a supine position with a head up until regaining consciousness. The reference compound was administered twice daily with the second daily administration 6 hours post the first daily administration. Instillation volume: 0.25 mL/rat. Five minutes (5′) before OVA challenge, blood was collected (0.2 ml) from the tongue vein and plasma (60 ul/well) was collected on 96-deepwell plate. The provocation occurred at Day14 (P1) and was applied 2 hours after compound administration. The rats were anaesthetized with Isoflurane mixture (air and 4% isoflurane) put in supine position with 30-40° angle and instilled with the isotonic saline or OVA (0.1 mg/ml). The intra-tracheal instillation was performed. by using a modified metal cannula with bolus-bulb on the end. Rats were placed in cages in a supine position with a head up until regaining consciousness. Sham challenge was performed by i.t. instillation of isotonic saline with the same volume and strategy. Instillation volume: 0.25 ml/rat. At 22 hours post OVA challenge (P1), rats were euthanized with an intraperitoneal injection of 1 ml pentobarbital (50 mg/ml). […]

Series [2] can be described thus: Plasma drug concentration by LC-MSMS at termination of alopecia areata study. It is filed as in vivo. The note with it: 1-2 h after last oral dose at 12.5 mg/kg BW, C3H/HeJ mice. On the procedure: Blood was sampled from behind the eye in EDTA-coated test tubes (Multivette 300, Sarstedt) and kept on ice. Plasma was obtained by centrifugation (4° C., 4000 G, 5 min) and 50 μL transferred to a 96-well NUNC plate and stored at −20° C. until analyzed with regards to drug concentration by LC-MSMS.

For series [3], the target named is recombinant JAK1 (amino acids 866-1154) (Homo sapiens (Human), UniProt P23458). Nature of the series: Enzyme inhibition studies, JAK1 (5 mM ATP, Caliper). Type of series: biochemical. The method in brief: (§1)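 N-terminal GST-fused kinase domains from insect cells, run at 5 mM ATP with inhibitor at 30, 3, 0.3, 0.03, 0.003 and 0 μM final.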
Sequence of recombinant JAK1 (amino acids 866-1154) (P23458 866-1154): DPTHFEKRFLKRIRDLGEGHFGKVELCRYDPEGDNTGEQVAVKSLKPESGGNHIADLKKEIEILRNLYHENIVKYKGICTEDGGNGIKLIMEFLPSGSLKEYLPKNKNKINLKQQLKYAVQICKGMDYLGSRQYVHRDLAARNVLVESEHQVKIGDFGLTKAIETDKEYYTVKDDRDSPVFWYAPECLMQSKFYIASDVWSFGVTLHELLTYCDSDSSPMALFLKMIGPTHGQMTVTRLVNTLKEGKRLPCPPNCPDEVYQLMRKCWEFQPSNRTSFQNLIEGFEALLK
In series [4] the target is recombinant JAK3 (amino acids 781-1124) (Homo sapiens (Human), UniProt P52333). As to the kind of experiment: Enzyme inhibition studies, JAK3 (5 mM ATP, Caliper). It is filed as biochemical. An outline of the steps: as §1
Sequence of recombinant JAK3 (amino acids 781-1124) (P52333 781-1124): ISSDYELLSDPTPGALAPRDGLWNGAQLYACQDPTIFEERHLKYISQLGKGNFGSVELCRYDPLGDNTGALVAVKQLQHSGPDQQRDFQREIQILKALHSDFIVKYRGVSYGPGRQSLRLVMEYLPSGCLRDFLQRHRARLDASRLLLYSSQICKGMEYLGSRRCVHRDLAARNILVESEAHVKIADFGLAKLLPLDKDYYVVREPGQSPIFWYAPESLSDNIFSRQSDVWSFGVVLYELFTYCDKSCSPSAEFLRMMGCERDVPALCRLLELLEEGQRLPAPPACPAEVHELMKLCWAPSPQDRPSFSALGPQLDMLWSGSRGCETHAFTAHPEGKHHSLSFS

A value given as a limit tells only on which side of the number the result lay.

In the case of `CCCC1O[C@@H]2C[C@H]3[C@@H]4CCC5=CC(=O)C=C[C@]5(C)[C@H]4[C@@H](O)C[C@]3(C)[C@]2(C(=O)CO)O1` (stereo partly drawn) [Budesonide, reference compound], the inhibition of eosinophils in series [1] (i.t. over dose 2*300, twice daily Day14 (Group 8)) is 97%.

Consider `COC[C@H](C(=O)Nc1cccc2c(-c3nc(Nc4cccc(S(C)(=O)=O)c4F)ncc3F)c[nH]c12)N1CCN(C)CC1` [Example 35, (R)-N-(3-(5-fluoro-2-(2-fluoro-3-(methylsulfonyl)phenylamino)pyrimidin-4-yl)-1H-indol-7-yl)-3-methoxy-2-(4-methylpiperazin-1-yl)propanamide], for which, in series [2], the “mean plasma exposure (total concentration)” value turned out to be 338 nM. Moreover, in series [1] (compared to OVA control (group 3), plateau from the 0.6 μg/kg dose), the “max inhibition of eosinophils” value was determined as 68%. For the same compound, the “reduction of eosinophils in BAL” value in series [1] (lung dose 0.08 μg/kg, not significant) came out at 7%; in series [1] (lung dose 0.11 μg/kg, not significant), 28%; in series [1] (lung dose 0.6 μg/kg, p<0.01), 68%; in series [1] (lung dose 4.76 μg/kg, p<0.01), 61%. Also, the values for the IC50 in series [3] and in series [4] were less than 0.003 µM and greater than 30 µM, respectively.
